This test addresses T1, MMP-14 (Homo sapiens, UniProt P50281).
T1 construct: The catalytic domain enzyme was expressed in E. coli inclusion bodies, solubilized in urea; made in house
The experiment in a line: In vitro MMP inhibition, Ki determination (fluorogenic substrate II). Type of test: biochemical. The protocol: Several hydroxamic acids and salts thereof were analyzed in in vitro assays to determine their ability to inhibit the MMP cleavage of peptide substrates. […] and IC50 constants were calculated from the assayed hydroxamic acid-MMP interactions.
Human recombinant MMP-1, MMP-2, MMP-9, MMP-13, and MMP-14 were used in this assay. All enzymes were prepared in Assignee's laboratories following usual laboratory procedures. Protocols for the preparation and use of these enzymes are available in the scientific literature. See, e.g., Enzyme Nomenclature (Academic Press, San Diego, Calif., 1992) (and the citations therein). See also, Freije et al., “Molecular cloning and expression of collagenase-3, a novel human matrix metalloproteinase produced by breast carcinomas,” J Biol. Chem., 269(24), 16766-16773 (1994).
The MMP-14 full length cDNA was provided by Dr. Gregory Goldberg of Washington University (St. Louis, Mo.). The catalytic domain enzyme was expressed in E. coli inclusion bodies, solubilized in urea, purified on a preparative […] reverse phase HPLC column, and then refolded in the presence of zinc acetate and purified for use.
All MMPs were activated using 4-aminophenylmercuric acetate (“APMA”, Sigma Chemical, St. Louis, Mo.) or trypsin. MMP-9 also was activated using human recombinant MMP-3 (purified in Assignee's laboratory following standard cloning and purification techniques).
Two fluorogenic, methoxycoumarin-containing polypeptide substrates were used in the MMP inhibition assays: [drawing 427] Here, “Dpa” is 3-(2,4-dinitrophenyl)-L-2,3-diaminopropionyl group, and “MCA” is 7-methoxycoumarin-4-yl acetyl. Substrate (I) was purchased from Baychem (Redwood City, Calif.), and substrate II was prepared Assignee's laboratory. Substrate I was used in the IC50 determination assays, while substrate II was used in the Ki determination assays. In the absence of MMP inhibitory activity, either substrate is cleaved at the Gly-Leu peptide bond. This cleavage separates the highly fluorogenic peptide from the 2,4-dinitrophenyl quencher, thus resulting in increase of fluorescent intensity.
The stock solutions of the assayed hydroxamic acids (or salts thereof) were prepared in 1% dimethyl sulfoxide (DMSO). These stock solutions were diluted in Buffer A (100 mM Tris-HCl, 100 mM NaCl, 10 mM CaCl2, 0.05% polyoxyethylene 23 lauryl ether, pH 7.5) to obtain solutions with different hydroxamic acid concentrations, i.e., assay solutions with different concentrations of the assayed MMP inhibitory compound. The experiment controls contained the same amount of Buffer A/DMSO as the assayed sample, but contained no hydroxamic acid (or salt thereof).
The assays from which the Ki determinations were made were performed as follows. The assayed hydroxamic acid samples were incubated in separate wells of untreated white polystyrene plates (Nunc Nalgene International, Rochester, N.Y.), and analyzed on a Tecan SpectraFlour Plus plate reader. The excitation wavelength was 330 nm, and the emission wavelength—420 nm. All samples (assayed hydroxamic acids and controls) were incubated in separate plate wells at room temperature for 1 hr in the presence of 4 μM of MMP substrate (II). In the absence of MMP inhibitory activity, substrate II was cleaved at the Gly-Leu bond resulting in an increase of relative fluorescence. Inhibition was observed as a reduced rate of this increase in relative fluorescence. The various hydroxamic acids were analyzed using a single low enzyme concentration with a single substrate concentration fixed at or below the Km. This protocol is a modification of method by Knight et al., FEBS Lett., 296(3), 263-266 (1992). Apparent inhibitory constants were determined by non-linear regression of reaction velocity as a function of inhibitor and enzyme concentration using Morrison's equation, as described by Kuzmic, Anal. Biochem. 286, 45-50 (2000).

The mark [1] stands for this setting: human recombinant enzyme (catalytic domain), 4 μM substrate II, room temperature, 1 hr, read-out: MMP-14 Ki.
The mark [2] stands for this setting: value not in parenthesis, read-out: MMP-14 Ki.
Setting [3] is: MMP-14 Ki, value not in parenthesis.

Structures are written as SMILES. pKi: −log10 of the molar value. Structures can show the parent of a compound that is named as a salt. Where two headings read alike, the source gives them in different places.

Take `CCCCc1cnc(N2CCN(S(=O)(=O)C3(C(=O)NO)CCOCC3)CC2)cn1` [Example 1, 4-{[4-(5-butylpyrazin-2-yl)piperazin-1-yl]sulfonyl}-N-hydroxytetrahydro-2H-pyran-4-carboxamide Dihydrochloride]: the pKi under setting [1] was 5.37. Same read-out and setting: for `O=C(NO)C1(S(=O)(=O)N2CCN(c3ccc(OCC(F)(F)F)cc3)CC2)CCOCC1` [Example 2, N-hydroxy-4-({4-[4-(2,2,2-trifluoroethoxy)phenyl]piperazin-1-yl}sulfonyl)tetrahydro-2H-pyran-4-carboxamide Hydrochloride] the value was 5.71; for `CCOc1ccc(N2CCN(S(=O)(=O)C3(C(=O)NO)CCOCC3)CC2)cc1` [Example 3, 4-{[4-(4-ethoxyphenyl)piperazinyl]sulfonyl}perhydro-2H-pyran-4-carbohydroxamic Acid], 5.90; for `O=C(NO)C1(S(=O)(=O)N2CCN(c3ccc(OC(F)(F)C(F)F)cc3)CC2)CCOCC1` [Example 4, 4-({4-[4-(1,1,2,2-tetrafluoroethoxy)phenyl]piperazinyl}sulfonyl)perhydro-2H-pyran-4-carbohydroxamic Acid], 6.02.

With `O=C(NO)C1(S(=O)(=O)N2CCN(c3ccc(OCCCC(F)(F)F)cc3)CC2)CCOCC1` [Example 7, N-hydroxy-4-({4-[4-(4,4,4-trifluorobutoxy)phenyl]piperazin-1-yl}sulfonyl)tetrahydro-2H-pyran-4-carboxamide Hydrochloride], the pKi under setting [1] is 5.36.

Turning to `COc1ccc(-c2cnc(N3CCN(S(=O)(=O)C4(C(=O)NO)CCOCC4)CC3)nc2)cc1` [Example 8, N-hydroxy-4-({4-[5-(4-methoxyphenyl)pyrimidin-2-yl]piperazin-1-yl}sulfonyl)tetrahydro-2H-pyran-4-carboxamide Hydrochloride], the pKi under setting [1] is 6.33.

Take `COCCN1CCC(C(=O)NO)(S(=O)(=O)N2CCN(c3ccc(OCCCC(F)(F)F)cc3)CC2)CC1` [Example 9, N-hydroxy-1-(2-methoxyethyl)-4-({4-[4-(4,4,4-trifluorobutoxy)phenyl]piperazin-1-yl}sulfonyl)piperidine-4-carboxamide Dihydrochloride]: the pKi under setting [1] is 5.23. The same measure, in the same setting: for `O=C(NO)C1(S(=O)(=O)N2CCN(c3ccc(-c4ccccc4)c(F)c3)CC2)CCOCC1` [Example 12, 4-{[4-(2-fluoro-1,1′-biphenyl-4-yl)piperazin-1-yl]sulfonyl}-N-hydroxytetrahydro-2H-pyran-4-carboxamide Hydrochloride] the value was 5.77; for `CCCCCc1ccc(N2CCN(S(=O)(=O)C3(C(=O)NO)CCN(CCOC)CC3)CC2)cc1F` [Example 13, 4-{[4-(3-fluoro-4-pentylphenyl)piperazin-1-yl]sulfonyl}-N-hydroxy-1-(2-methoxyethyl)piperidine-4-carboxamide Dihydrochloride], 5.45; for `COCCOc1ccc(N2CCN(S(=O)(=O)C3(C(=O)NO)CCOCC3)CC2)cc1` [Example 14, N-hydroxy-4-({4-[4-(2-methoxyethoxy)phenyl]piperazin-1-yl}sulfonyl)tetrahydro-2H-pyran-4-carboxamide Hydrochloride], 5.04. As to `CCCCOc1ccc(C2CCN(S(=O)(=O)C3(C(=O)NO)CCN(CCOC)CC3)CC2)cc1` [Example 16, 4-{[4-(4-butoxyphenyl)piperidin-1-yl]sulfonyl}-N-hydroxy-1-(2-methoxyethyl)piperidine-4-carboxamide Hydrochloride], under setting [1], the pKi was 5.53. Take `O=C(NO)C1(S(=O)(=O)N2CCN(c3ccc(CCC(F)(F)C(F)(F)F)cc3)CC2)CCOCC1` [Example 17, N-hydroxy-4-({4-[4-(3,3,4,4,4-pentafluorobutyl)phenyl]piperazin-1-yl}sulfonyl)tetrahydro-2H-pyran-4-carboxamide Hydrochloride]: the pKi under setting [1] is 5.10.

In the case of `O=C(NO)C1(S(=O)(=O)N2CCC(c3ccc(CCC(F)(F)C(F)(F)F)cc3)CC2)CCOCC1` [Example 18, N-hydroxy-4-({4-[4-(3,3,4,4,4-pentafluorobutyl)phenyl]piperidin-1-yl}sulfonyl)tetrahydro-2H-pyran-4-carboxamide], the pKi under setting [1] is 5.75. Consider `CCCCc1ccc(C2CCN(S(=O)(=O)C3(C(=O)NO)CCOCC3)CC2)s1` [Example 19, 4-{[4-(5-butylthien-2-yl)piperidin-1-yl]sulfonyl}-N-hydroxytetrahydro-2H-pyran-4-carboxamide], for which the pKi under setting [1] is 5.66.

In the case of `COCCN1CCC(C(=O)NO)(S(=O)(=O)N2CCC(c3ccc(OCCCC(F)(F)F)cc3)CC2)CC1` [Example 20, N-hydroxy-1-(2-methoxyethyl)-4-({4-[4-(4,4,4-trifluorobutoxy)phenyl]piperidin-1-yl}sulfonyl)piperidine-4-carboxamide Hydrochloride], the pKi under setting [1] was 5.57. For the compound `CCCCCc1ccc(N2CCN(S(=O)(=O)C3(C(=O)NO)CCN(C(=O)C(F)(F)F)CC3)CC2)cc1` [Example 21, N-hydroxy-4-{[4-(4-pentylphenyl)piperazin-1-yl]sulfonyl}-1-(trifluoroacetyl)piperidine-4-carboxamide Hydrochloride], the pKi under setting [1] was 5.16. On the same count and under the same terms, the value for `CCCCCc1ccc(N2CCN(S(=O)(=O)C3(C(=O)NO)CCN(CC)CC3)CC2)cc1F` [Example 22, 1-ethyl-4-{[4-(3-fluoro-4-pentylphenyl)piperazin-1-yl]sulfonyl}-N-hydroxypiperidine-4-carboxamine Hydrochloride] was 5.03; that for `CCCCCc1ccc(N2CCN(S(=O)(=O)C3(C(=O)NO)CCOCC3)CC2)c(F)c1` [Example 23, 4-{[4-(2-fluoro-4-pentylphenyl)piperazin-1-yl]sulfonyl}-N-hydroxytetrahydro-2H-pyran-4-carboxamide Hydrochloride] was under 5.00. Consider `CCCCc1ccc(C2CCN(S(=O)(=O)C3(C(=O)NO)CCN(C4CC4)CC3)CC2)nc1` [Example 24, 4-{[4-(5-butylpyridin-2-yl)piperidin-1-yl]sulfonyl}-1-cyclopropyl-N-hydroxypiperidine-4-carboxamide Hydrochloride], for which, under setting [1], the pKi is 5.54. The same measure, in the same setting: the value for `O=C(NO)C1(S(=O)(=O)N2CCC(c3ccc(OCC(F)(F)F)cc3)CC2)CCN(C2CC2)CC1` [Example 25, 1-cyclopropyl-N-hydroxy-4-({4-[4-(2,2,2-trifluoroethoxy)phenyl]piperidin-1-yl}sulfonyl)piperidine-4-carboxamide Hydrochloride] was 5.27; that for `CCCCCCCCC1CCN(S(=O)(=O)C2(C(=O)NO)CCOCC2)CC1` [Example 26, 4-(4-octyl-piperidine-1-sulfonyl)-tetrahydro-pyran-4-carboxylic Acid Hydroxyamide] was 6.18; that for `O=C(NO)C1(S(=O)(=O)N2CCC(c3cnc(OCC(F)(F)C(F)(F)F)cn3)CC2)CCOCC1` [Example 27] was 5.21. With `CCCCCc1cnc(N2CCN(S(=O)(=O)C3(C(=O)NO)CCOCC3)CC2)s1` [Example 56], under setting [2], the pKi is 6.10. As to `O=C(NO)C1(S(=O)(=O)N2CCN(c3ccc(-c4ccc(Cl)cc4)cn3)CC2)CCOCC1` [Example 60], under setting [2], the pKi is 6.48. `O=C(NO)C1(S(=O)(=O)N2CCN(c3ccc(COCC(F)(F)C(F)(F)C(F)(F)C(F)F)cc3)CC2)CCOCC1` [Example 68]: the pKi under setting [3] is under 5.00. With `O=C(NO)C1(S(=O)(=O)N2CCN(c3ccc(COCC(F)(F)C(F)(F)C(F)(F)F)cc3)CC2)CCOCC1` [Example 69], the pKi under setting [3] was under 5.00. On to `C=CCCOC(=O)N1CCC(C(=O)NO)(S(=O)(=O)N2CCN(c3ccc(OCCCC)cc3)CC2)CC1` [Example 101], for which the pKi under setting [2] is 5.36.

As usually defined, the pKi is the negative decadic logarithm of the Ki, by convention in mol/L.

Source of the values: US20050209278A1, “Piperidinyl- and piperazinyl-sulfonylmethyl hydroxamic acids and their use as protease inhibitors” (priority 2002, published 2005).
